The values below come from ChEMBL document CHEMBL1123817, “X-ray crystal structure of the opioid ligand naltrexonazine” (J Med Chem, 1987).

The term IC50 denotes the concentration that inhibits the measured activity by half. Read a low IC50 as greater potency in that assay.

This test deals with Opioid receptor (Rattus norvegicus, UniProt P33533+P34975+P33535). The test is described as follows: Inhibition of [3H]DAMPGO binding was determined using standard binding assay in rat brain homogenates against opioid receptor. The test is classed as tissue-based.
Consider `Oc1ccc2c3c1O[C@H]1/C(=N/N=C4\CC[C@@]5(O)[C@H]6Cc7ccc(O)c8c7[C@@]5(CCN6CC5CC5)[C@H]4O8)CC[C@@]4(O)[C@@H](C2)N(CC2CC2)CC[C@]314` (mixture of isomers) [NALTREXONAZINE], for which the IC50 is 350 pM.
As to `Oc1ccc2c3c1O[C@H]1/C(=N/N=C4\CC[C@@]5(O)[C@H]6Cc7ccc(O)c8c7[C@@]5(CCN6CC5CC5)[C@H]4O8)CC[C@@]4(O)[C@@H](C2)N(CC2CC2)CC[C@]314` (stereo in doubt; anti) [NALTREXONAZINE], the IC50 was determined as 450 pM.
Next, `Oc1ccc2c3c1O[C@H]1/C(=N/N=C4\CC[C@@]5(O)[C@H]6Cc7ccc(O)c8c7[C@@]5(CCN6CC5CC5)[C@H]4O8)CC[C@@]4(O)[C@@H](C2)N(CC2CC2)CC[C@]314` (stereo in doubt; syn) [NALTREXONAZINE]: 470 pM.
